# Test results published in publication PMC9743094, “Synthesis and Evaluation of Polymyxins Bearing Reductively Labile Disulfide-Linked Lipids” (Journal of Medicinal Chemistry, 2022).
# Positions of bridges follow the written chain, without caps; N, C: chain ends. Non-standard residues stand in square brackets, D forms with d. Residues, ends and D or L forms follow the SMILES beside them. *: point of attachment. Phenylthio(4-OPh) = c1ccc(Oc2ccc(S*)cc2)cc1; S(2-cyclohexylethyl) = C1CCC(CCS*)CC1; S(3-Methylbutyl) = CC(C)CCS*; X6 = c1ccc(-c2ccc(S*)cc2)cc1; Dab = NCC[C@H](N)C(=O)O; X1 = CC(C)CCCCS*; X4 = CCCCCCS*
# What was measured:
# [1] = system: P. aeruginosa (ATCC 27853); format: cell-based; settings: ATCC 27853
# Procedure: (§1) Minimum inhibitory concentrations (MICs) on relevant Gram-negative bacteria were determined by broth microdilution, in accordance with CLSI guidelines. Indicated bacteria were taken from glycerol stocks and incubated overnight on blood agar at 37 °C. Well-isolated colonies were taken, suspended in TSB (5 mL), and grown to an OD600 of 0.5. Compounds to be tested were dissolved in DMSO (6.4 mg/mL), diluted in cation-adjusted Mueller–Hinton Broth (CAMHB) (12.5 and 20 μg/mL Mg^2+ and Ca^2+, respectively), and diluted serially on polypropylene microtiter plates. To the diluted compounds (50 μL per well) was added 50 μL of relevant bacterial suspension, to yield a final concentration of 10^6 CFU/mL. Plates were covered by adhesive gas-permeable membranes and incubated at 37 °C. MIC was read out as the lowest concentration that inhibited visual bacterial growth. Shown values are consistent results from at least duplicate experiments.
# [2] = system: E. coli (ATCC 25922); format: cell-based; settings: ATCC 25922
# Procedure: as §1
# [3] = system: A. baumannii (ATCC 19606); format: cell-based; settings: ATCC 19606
# Procedure: as §1
# [4] = system: K. pneumoniae (ATCC 13883); format: cell-based; settings: ATCC 13883
# Procedure: as §1
# [5] = system: differentiated conditionally immortalized PTECs (ciPTECs, OAT-1); test: ciPTEC toxicity assay (PrestoBlue); format: cell-based, human
# Procedure: ciPTECs (OAT-1) cells,[52],[53] grown to 90–100% confluence, were washed by Hanks’ balanced salt solution (HBSS; Gibco, Life Technologies, Paisley, U.K.) and detached by accutase (4 mL) for 5 min at 37 °C. The cells were then suspended in fresh medium (DMEM/F-12, supplemented with 10% fetal calf serum, insulin (5 μg/mL), transferrin (5 μg/mL), selenium (5 μg/mL) hydrocortisone (35 ng/mL), Epidermal Growth Factor (10 ng/mL) and tri-iodothyronine (40 pg/mL)). Cell density was adjusted to 2.0 × 10^5 cells/mL, of which 100 μL was added to each well of a 96-well plate. The cells were incubated for 24 h at 33 °C, followed by 6 days at 37 °C, in a humidified atmosphere containing 5% (v/v) CO2. The medium was refreshed every second or third day.
# Compounds were dissolved and serially diluted in serum-free medium. Differentiated cells were washed once with HBSS and serially diluted compounds (80 μL/well) were transferred to the ciPTEC-containing plate. Compounds were incubated for 24 h at 37 °C; the cells were washed by HBSS, followed by incubation with 10% PrestoBlue cell viability reagent (Thermo Scientific, Vienna, Austria) in HBSS at 37 °C in the dark. Fluorescence was recorded (excitation: 530 nm, emission: 590 nm). Raw data are corrected for PrestoBlue background fluorescence and reported relative to the no-treatment control (cells with medium only). Viability data were fitted with GraphPad Prism software (version 5.03; GraphPad Software, La Jolla, CA), by nonlinear regression with 0 as bottom constraint. Presented data are based on triplicates.
# Toxicity assessment on PTECs
# Table S1. TC50 values for polymyxin analogues. Toxicity assessment on proximal tubular epithelial cells
# performed using PrestoBlue™ assay. TC50 values are derived after non-linear regression analysis on cell viability
# correspond to data obtained from 2 different batches of cells/analyses on different days. As the value for
# polymyxin B differs 2-fold, values in the manuscript are presented relative to the polymyxin B value.
# Compound TC50 (µ M) Compound TC50 (µ M)
# Polymyxin B 80 Polymyxin B 41
# Figure S3. Representative traces of ciPTECs’ viability after incubation with analogues for 24 hours. Shown data are based on […]
MIC P. aeruginosa (ATCC 27853) [1],MIC E. coli (ATCC 25922) [2],MIC A. baumannii (ATCC 19606) [3],MIC K. pneumoniae (ATCC 13883) [4],Compound,"TC50, Day 1 [5]",ciPTEC Toxicity Index (relative to polymyxin B) [5]
2 µg/mL,2 µg/mL,4 µg/mL,1 µg/mL,CC(C)CCCCSSC[C@H](N)C(=O)N[C@H](C(=O)N[C@@H](CCN)C(=O)N[C@H]1CCNC(=O)[C@H]([C@@H](C)O)NC(=O)[C@H](CCN)NC(=O)[C@H](CCN)NC(=O)[C@H](CC(C)C)NC(=O)[C@@H](Cc2ccccc2)NC(=O)[C@H](CCN)NC1=O)[C@@H](C)O [Compound 20a] (H-C(X1)T[Dab][Dab][Dab][dF]L[Dab][Dab]T; lactam 4-C),–,–
2 µg/mL,4 µg/mL,2 µg/mL,1 µg/mL,CCCCCCSSC[C@H](NC(=O)CN)C(=O)N[C@H](C(=O)N[C@@H](CCN)C(=O)N[C@H]1CCNC(=O)[C@H]([C@@H](C)O)NC(=O)[C@H](CCN)NC(=O)[C@H](CCN)NC(=O)[C@H](CC(C)C)NC(=O)[C@@H](Cc2ccccc2)NC(=O)[C@H](CCN)NC1=O)[C@@H](C)O [Compound 21a] (H-GC(X4)T[Dab][Dab][Dab][dF]L[Dab][Dab]T; lactam 5-C),–,–
2 µg/mL,–,4 µg/mL,2 µg/mL,CC(C)CCSSC[C@H](NC(=O)CN)C(=O)N[C@H](C(=O)N[C@@H](CCN)C(=O)N[C@H]1CCNC(=O)[C@H]([C@@H](C)O)NC(=O)[C@H](CCN)NC(=O)[C@H](CCN)NC(=O)[C@H](CC(C)C)NC(=O)[C@@H](Cc2ccccc2)NC(=O)[C@H](CCN)NC1=O)[C@@H](C)O [Compound 22a] (H-GC(S(3-Methylbutyl))T[Dab][Dab][Dab][dF]L[Dab][Dab]T; lactam 5-C),305 µM,3.8
8 µg/mL,4 µg/mL,32 µg/mL,4 µg/mL,CC(C)C[C@@H]1NC(=O)[C@@H](Cc2ccccc2)NC(=O)[C@H](CCN)NC(=O)[C@@H](NC(=O)[C@H](CCN)NC(=O)[C@@H](NC(=O)[C@@H](N)CSSc2ccc(-c3ccccc3)cc2)[C@@H](C)O)CCNC(=O)[C@H]([C@@H](C)O)NC(=O)[C@H](CCN)NC(=O)[C@H](CCN)NC1=O [Compound 29a] (H-C(X6)T[Dab][Dab][Dab][dF]L[Dab][Dab]T; lactam 4-C),–,–
8 µg/mL,8 µg/mL,8 µg/mL,2 µg/mL,CC(C)C[C@@H]1NC(=O)[C@@H](Cc2ccccc2)NC(=O)[C@H](CCN)NC(=O)[C@@H](NC(=O)[C@H](CCN)NC(=O)[C@@H](NC(=O)[C@H](N)CSSc2ccc(-c3ccccc3)cc2)[C@@H](C)O)CCNC(=O)[C@H]([C@@H](C)O)NC(=O)[C@H](CCN)NC(=O)[C@H](CCN)NC1=O [Compound 29b] (H-[dC](X6)T[Dab][Dab][Dab][dF]L[Dab][Dab]T; lactam 4-C),–,–
4 µg/mL,4 µg/mL,>32 µg/mL,4 µg/mL,CC(C)C[C@@H]1NC(=O)[C@@H](Cc2ccccc2)NC(=O)[C@H](CCN)NC(=O)[C@@H](NC(=O)[C@H](CCN)NC(=O)[C@@H](NC(=O)[C@@H](N)CSSc2ccc(Oc3ccccc3)cc2)[C@@H](C)O)CCNC(=O)[C@H]([C@@H](C)O)NC(=O)[C@H](CCN)NC(=O)[C@H](CCN)NC1=O [Compound 30a] (H-C(Phenylthio(4-OPh))T[Dab][Dab][Dab][dF]L[Dab][Dab]T; lactam 4-C),–,–
4 µg/mL,4 µg/mL,4 µg/mL,2 µg/mL,CC(C)C[C@@H]1NC(=O)[C@@H](Cc2ccccc2)NC(=O)[C@H](CCN)NC(=O)[C@@H](NC(=O)[C@H](CCN)NC(=O)[C@@H](NC(=O)[C@H](N)CSSc2ccc(Oc3ccccc3)cc2)[C@@H](C)O)CCNC(=O)[C@H]([C@@H](C)O)NC(=O)[C@H](CCN)NC(=O)[C@H](CCN)NC1=O [Compound 30b] (H-[dC](Phenylthio(4-OPh))T[Dab][Dab][Dab][dF]L[Dab][Dab]T; lactam 4-C),–,–
8 µg/mL,4 µg/mL,16 µg/mL,2 µg/mL,CC(C)C[C@@H]1NC(=O)[C@@H](Cc2ccccc2)NC(=O)[C@H](CCN)NC(=O)[C@@H](NC(=O)[C@H](CCN)NC(=O)[C@@H](NC(=O)[C@H](CSSc2ccc(-c3ccccc3)cc2)NC(=O)CN)[C@@H](C)O)CCNC(=O)[C@H]([C@@H](C)O)NC(=O)[C@H](CCN)NC(=O)[C@H](CCN)NC1=O [Compound 31a] (H-GC(X6)T[Dab][Dab][Dab][dF]L[Dab][Dab]T; lactam 5-C),–,–
8 µg/mL,8 µg/mL,16 µg/mL,4 µg/mL,CC(C)C[C@@H]1NC(=O)[C@@H](Cc2ccccc2)NC(=O)[C@H](CCN)NC(=O)[C@@H](NC(=O)[C@H](CCN)NC(=O)[C@@H](NC(=O)[C@@H](CSSc2ccc(-c3ccccc3)cc2)NC(=O)CN)[C@@H](C)O)CCNC(=O)[C@H]([C@@H](C)O)NC(=O)[C@H](CCN)NC(=O)[C@H](CCN)NC1=O [Compound 31b] (H-G[dC](X6)T[Dab][Dab][Dab][dF]L[Dab][Dab]T; lactam 5-C),–,–
8 µg/mL,8 µg/mL,32 µg/mL,4 µg/mL,CC(C)C[C@@H]1NC(=O)[C@@H](Cc2ccccc2)NC(=O)[C@H](CCN)NC(=O)[C@@H](NC(=O)[C@H](CCN)NC(=O)[C@@H](NC(=O)[C@H](CSSc2ccc(Oc3ccccc3)cc2)NC(=O)CN)[C@@H](C)O)CCNC(=O)[C@H]([C@@H](C)O)NC(=O)[C@H](CCN)NC(=O)[C@H](CCN)NC1=O [Compound 32a] (H-GC(Phenylthio(4-OPh))T[Dab][Dab][Dab][dF]L[Dab][Dab]T; lactam 5-C),–,–
4 µg/mL,8 µg/mL,8 µg/mL,4 µg/mL,CC(C)C[C@@H]1NC(=O)[C@@H](Cc2ccccc2)NC(=O)[C@H](CCN)NC(=O)[C@@H](NC(=O)[C@H](CCN)NC(=O)[C@@H](NC(=O)[C@@H](CSSc2ccc(Oc3ccccc3)cc2)NC(=O)CN)[C@@H](C)O)CCNC(=O)[C@H]([C@@H](C)O)NC(=O)[C@H](CCN)NC(=O)[C@H](CCN)NC1=O [Compound 32b] (H-G[dC](Phenylthio(4-OPh))T[Dab][Dab][Dab][dF]L[Dab][Dab]T; lactam 5-C),–,–

Compound,MIC P. aeruginosa (ATCC 27853) [1],MIC E. coli (ATCC 25922) [2],MIC A. baumannii (ATCC 19606) [3],MIC K. pneumoniae (ATCC 13883) [4],"TC50, Day 1 [5]",ciPTEC Toxicity Index (relative to polymyxin B) [5]
CC(C)C[C@@H]1NC(=O)[C@@H](Cc2ccccc2)NC(=O)[C@H](CCN)NC(=O)[C@@H](NC(=O)[C@H](CCN)NC(=O)[C@@H](NC(=O)[C@@H](N)CSSCCC2CCCCC2)[C@@H](C)O)CCNC(=O)[C@H]([C@@H](C)O)NC(=O)[C@H](CCN)NC(=O)[C@H](CCN)NC1=O [Compound 19a] (H-C(S(2-cyclohexylethyl))T[Dab][Dab][Dab][dF]L[Dab][Dab]T; lactam 4-C),4 µg/mL,8 µg/mL,32 µg/mL,4 µg/mL,–,–
